Measurements reported in patent US7906507B2, “Oxadiazoanthracene compounds for the treatment of diabetes” (TransTech Pharma, Inc., priority 2008, dated 2011).

Biological target: T1, cloned human GLP-1 receptor (Homo sapiens, UniProt P43220)
T1 construct: expressed in transfected cells; host or cells: CHO or HEK-293 cells
Experiment: Functional cell-based assay: cAMP functional assay
Conditions: for Emax: 0.5 h, percentage relative to maximal GLP-1-induced cAMP accumulation, na = not active in the assay, read-out: % activation
How it was run: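 Monolayer cells incubated 30 min at 37 °C with compounds (0.0001–100 μM) in IMDM containing 100 μM RO 20-1724 PDE inhibitor, 0.1% BSA and 2% DMSO. cAMP measured by HTRF.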

T1 sequence (P43220 24-463): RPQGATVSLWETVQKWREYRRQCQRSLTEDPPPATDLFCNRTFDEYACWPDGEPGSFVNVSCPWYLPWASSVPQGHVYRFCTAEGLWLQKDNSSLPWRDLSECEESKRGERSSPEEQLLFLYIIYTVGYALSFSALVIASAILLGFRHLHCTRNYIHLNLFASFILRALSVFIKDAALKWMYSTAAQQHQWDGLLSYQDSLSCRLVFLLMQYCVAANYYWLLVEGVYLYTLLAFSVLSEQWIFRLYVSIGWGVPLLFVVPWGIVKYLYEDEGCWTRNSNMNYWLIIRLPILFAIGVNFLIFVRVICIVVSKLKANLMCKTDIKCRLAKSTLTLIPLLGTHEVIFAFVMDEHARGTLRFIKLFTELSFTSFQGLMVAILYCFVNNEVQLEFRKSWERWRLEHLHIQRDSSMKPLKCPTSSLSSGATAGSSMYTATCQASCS

Structure (SMILES) | EC50 | Emax
CCC(c1ccccc1)N1Cc2cc3c(cc2C[C@H]1C(=O)N[C@@H](Cc1ccc(-c2ccc(C#N)cc2)cc1)C(=O)O)N(C)C(=O)C(c1ccc(OCc2ccc(Cl)c(Cl)c2)cc1)O3 (stereo partly drawn) [Example 70, (S)-3-(4′-Cyano-biphenyl-4-yl)-2-{[(S)-3-[4-(3,4-dichloro-benzyloxy)-phenyl]-1-methyl-2-oxo-6-(1-phenyl-propyl)-2,3,5,6,7,8-hexahydro-1H-4-oxa-1,6-diaza-anthracene-7-carbonyl]-amino}-propionic acid] | 988 nM | 6.9%
CC[C@@H](c1ccccc1)N1Cc2cc3c(cc2C[C@H]1C(=O)N[C@@H](Cc1ccc(-c2ccc(Cl)cc2)cc1)C(=O)O)N(C)C(=O)[C@H](c1ccc(OCc2ccc(Cl)c(Cl)c2)cc1)O3 [Example 93, (S)-3-(4′-Chloro-biphenyl-4-yl)-2-{[(3S,7S)-3-[4-(3,4-dichloro-benzyloxy)-phenyl]-1-methyl-2-oxo-6-((S)-1-phenyl-propyl)-2,3,5,6,7,8-hexahydro-1H-4-oxa-1,6-diaza-anthracene-7-carbonyl]-amino}-propionic acid] | 138 nM | 31%
N#Cc1ccc(-c2ccc(C[C@H](NC(=O)[C@@H]3Cc4cc5c(cc4CN3C(=O)OC3CCOCC3)OC(c3ccc(OCc4ccc(Cl)c(Cl)c4)cc3)C(=O)N5)C(=O)O)cc2)cc1 (stereo partly drawn) [Example 11, (S)-7-[(S)-1-Carboxy-2-(4′-cyano-biphenyl-4-yl)-ethylcarbamoyl]-3-[4-(3,4-dichloro-benzyloxy)-phenyl]-2-oxo-1,2,3,5,7,8-hexahydro-4-oxa-1,6-diaza-anthracene-6-carboxylic acid tetrahydro-pyran-4-yl ester] | 606 nM | 71%
CC(C)OC(=O)N1Cc2cc3c(cc2C[C@H]1C(=O)N[C@@H](Cc1ccc(-c2ccc(C#N)cc2)cc1)C(=O)O)NC(=O)C(c1ccc(OCc2ccc(Cl)c(Cl)c2)cc1)O3 (stereo partly drawn) [Example 8, (S)-7-[(S)-1-Carboxy-2-(4′-cyano-biphenyl-4-yl)-ethylcarbamoyl]-3-[4-(3,4-dichloro-benzyloxy)-phenyl]-2-oxo-1,2,3,5,7,8-hexahydro-4-oxa-1,6-diaza-anthracene-6-carboxylic acid isopropyl ester] | 134 nM | 64%
N#Cc1ccc(-c2ccc(C[C@H](NC(=O)[C@@H]3Cc4cc5c(cc4CN3C(=O)c3ccccc3)OC(c3ccc(OCc4c(Cl)cccc4Cl)cc3)C(=O)N5)C(=O)O)cc2)cc1 (stereo partly drawn) [Example 57, (S)-2-({(S)-6-Benzoyl-3-[4-(2,6-dichloro-benzyloxy)-phenyl]-2-oxo-2,3,5,6,7,8-hexahydro-1H-4-oxa-1,6-diaza-anthracene-7-carbonyl}-amino)-3-(4′-cyano-biphenyl-4-yl)-propionic acid] | 570 nM | 20%
N#Cc1ccc(-c2ccc(C[C@H](NC(=O)[C@@H]3Cc4cc5c(cc4CN3C(=O)[C@H]3CCCO3)OC(c3ccc(OCc4ccc(Cl)c(Cl)c4)cc3)C(=O)N5)C(=O)O)cc2)cc1 (stereo partly drawn) [Example 6, (S)-3-(4′-Cyano-biphenyl-4-yl)-2-{[(S)-3-[4-(3,4-dichloro-benzyloxy)-phenyl]-2-oxo-6-((R)-tetrahydro-furan-2-carbonyl)-2,3,5,6,7,8-hexahydro-1H-4-oxa-1,6-diaza-anthracene-7-carbonyl]-amino}-propionic acid] | 3600 nM | 7%
N#Cc1ccc(-c2ccc(C[C@H](NC(=O)[C@@H]3Cc4cc5c(cc4CN3C(=O)c3ccccn3)OC(c3ccc(OCc4ccc(Cl)c(Cl)c4)cc3)C(=O)N5)C(=O)O)cc2)cc1 (stereo partly drawn) [Example 50, (S)-3-(4′-Cyano-biphenyl-4-yl)-2-{[(S)-3-[4-(3,4-dichloro-benzyloxy)-phenyl]-2-oxo-6-(pyridine-2-carbonyl)-2,3,5,6,7,8-hexahydro-1H-4-oxa-1,6-diaza-anthracene-7-carbonyl]-amino}-propionic acid] | 1220 nM | 49%
CC[C@@H](c1ccccc1)N1Cc2cc3c(cc2C[C@H]1C(=O)N[C@H](Cc1ccc(-c2ccc(C#N)cc2)cc1)C(=O)O)N(C)C(=O)[C@@H](c1ccc(OCc2ccc(Cl)c(Cl)c2)cc1)O3 [Example 98, (R)-3-(4′-Cyano-biphenyl-4-yl)-2-{[(3R,7S)-3-[4-(3,4-dichloro-benzyloxy)-phenyl]-1-methyl-2-oxo-6-((S)-1-phenyl-propyl)-2,3,5,6,7,8-hexahydro-1H-4-oxa-1,6-diaza-anthracene-7-carbonyl]-amino}-propionic acid] | 626 nM | 42%
N#Cc1ccc(-c2ccc(C[C@H](NC(=O)[C@@H]3Cc4cc5c(cc4CN3C(=O)OC3CCC(O)CC3)OC(c3ccc(OCc4ccc(Cl)c(Cl)c4)cc3)C(=O)N5)C(=O)O)cc2)cc1 (stereo partly drawn) [Example 1, (S)-7-[(S)-1-Carboxy-2-(4′-cyano-biphenyl-4-yl)-ethylcarbamoyl]-3-[4-(3,4-dichloro-benzyloxy)-phenyl]-2-oxo-1,2,3,5,7,8-hexahydro-4-oxa-1,6-diaza-anthracene-6-carboxylic acid 4-hydroxy-cyclohexyl ester] | 900 nM | 15%
Cc1cccc(CN2Cc3cc4c(cc3C[C@H]2C(=O)N[C@@H](Cc2ccc(-c3ccc(C#N)cc3)cc2)C(=O)O)NC(=O)C(c2ccc(OCc3ccc(Cl)c(Cl)c3)cc2)O4)n1 (stereo partly drawn) [Example 44, (S)-3-(4′-Cyano-biphenyl-4-yl)-2-{[(S)-3-[4-(3,4-dichloro-benzyloxy)-phenyl]-6-(6-methyl-pyridin-2-ylmethyl)-2-oxo-2,3,5,6,7,8-hexahydro-1H-4-oxa-1,6-diaza-anthracene-7-carbonyl]-amino}-propionic acid] | 1000 nM | 25%
N#Cc1ccc(-c2ccc(C[C@H](NC(=O)[C@@H]3Cc4cc5c(cc4CN3CCc3ccccc3)OC(c3ccc(OCc4ccc(Cl)c(Cl)c4)cc3)C(=O)N5)C(=O)O)cc2)cc1 (stereo partly drawn) [Example 35, (S)-3-(4′-Cyano-biphenyl-4-yl)-2-({(S)-3-[4-(3,4-dichloro-benzyloxy)-phenyl]-2-oxo-6-phenethyl-2,3,5,6,7,8-hexahydro-1H-4-oxa-1,6-diaza-anthracene-7-carbonyl}-amino)-propionic acid] | 1200 nM | 16%
N#Cc1ccc(-c2ccc(C[C@H](NC(=O)[C@@H]3Cc4cc5c(cc4CN3Cc3nccs3)OC(c3ccc(OCc4ccc(Cl)c(Cl)c4)cc3)C(=O)N5)C(=O)O)cc2)cc1 (stereo partly drawn) [Example 49, (S)-3-(4′-Cyano-biphenyl-4-yl)-2-({(S)-3-[4-(3,4-dichloro-benzyloxy)-phenyl]-2-oxo-6-thiazol-2-ylmethyl-2,3,5,6,7,8-hexahydro-1H-4-oxa-1,6-diaza-anthracene-7-carbonyl}-amino)-propionic acid] | 557 nM | 57%
Cn1ccnc1CN1Cc2cc3c(cc2C[C@H]1C(=O)N[C@@H](Cc1ccc(-c2ccc(C#N)cc2)cc1)C(=O)O)NC(=O)C(c1ccc(OCc2ccc(Cl)c(Cl)c2)cc1)O3 (stereo partly drawn) [Example 48, (S)-3-(4′-Cyano-biphenyl-4-yl)-2-{[(S)-3-[4-(3,4-dichloro-benzyloxy)-phenyl]-6-(1-methyl-1H-imidazol-2-ylmethyl)-2-oxo-2,3,5,6,7,8-hexahydro-1H-4-oxa-1,6-diaza-anthracene-7-carbonyl]-amino}-propionic acid] | 895 nM | 64%
